Measured values published in patent publication US7795288B2, “Thiazole and pyrazole derivatives as Flt-3 kinase inhibitors” (Novartis AG, priority 2003, dated 2010).

Biological target: T1, cytoplasmic kinase domain of human Flt-3 (GST-Flt-3) (Homo sapiens, UniProt P36888)
T1 construct: expressing the amino acid region amino acids 563-993 of the cytoplasmic kinase domain of human Flt-3; made in house; host or cells: Sf9 insect cells (baculovirus, pFbacG01 donor vector)
T1 sequence (P36888 563-993): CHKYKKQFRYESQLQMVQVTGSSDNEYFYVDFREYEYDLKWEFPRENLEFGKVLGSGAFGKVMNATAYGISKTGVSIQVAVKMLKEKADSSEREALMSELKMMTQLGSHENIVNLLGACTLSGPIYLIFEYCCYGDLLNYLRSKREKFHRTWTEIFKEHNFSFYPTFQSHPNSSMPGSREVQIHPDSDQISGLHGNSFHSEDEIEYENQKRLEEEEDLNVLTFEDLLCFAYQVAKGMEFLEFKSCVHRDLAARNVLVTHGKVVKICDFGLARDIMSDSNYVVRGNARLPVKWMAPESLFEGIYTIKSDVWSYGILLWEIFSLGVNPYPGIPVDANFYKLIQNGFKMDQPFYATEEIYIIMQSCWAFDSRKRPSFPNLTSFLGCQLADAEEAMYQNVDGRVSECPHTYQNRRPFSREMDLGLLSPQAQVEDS
Assay: Inhibition of the protein tyrosine kinase activity of Flt-3 (GST-Flt-3, 33P incorporation into poly(Glu, Tyr))
Format: biochemical
Details: purified GST-Flt-3, 8.0 μM ATP, poly(Glu, Tyr) 4:1, 20 min at ambient temperature
Excerpt: The baculovirus donor vector pFbacG01 (GIBCO) is used to generate a recombinant baculovirus expressing the amino acid region amino acids 563-993 of the cytoplasmic kinase domain of human Flt-3. The coding sequence for the cytoplasmic domain of Flt-3 is amplified by PCR from human c-DNA libraries (Clontech). The amplified DNA fragments and the pFbacG01 vector are made compatible for ligation by digestion with BamH1 and HindIII. Ligation of these DNA fragments results in the baculovirus donor plasmid Flt-3 (1.1). The production of the viruses, the expression of proteins in Sf9 cells and the purification of the GST-fused proteins are performed as follows: Production of virus: Transfer vector (pFbacG01-Flt-3) containing the Flt-3 kinase domain is transfected into the DH10Bac cell line (GIBCO) and the transfected cells are plated on selective agar plates. Colonies without insertion of the fusion sequence into the viral genome (carried by the bacteria) are blue. Single white colonies are picked and viral DNA (bacmid) is isolated from the bacteria by standard plasmid purification procedures. Sf9 or Sf21 cells (American Type Culture Collection) are then transfected in flasks with the viral DNA using Cellfectin reagent. Protein expression in Sf9 cells: Virus containing media is collected from the transfected cell culture and used for infection to increase its titre. Virus containing media obtained after two rounds of infection is used for large-scale protein expression. For large-scale protein expression 100 cm^2 round tissue culture plates are seeded with 5×10^7 cells/plate and infected with 1 mL of virus-containing media (approx. 5 MOIs). After 3 days the cells are scraped off the plate and centrifuged at 500 rpm for 5 min. Cell pellets from 10-20, 100 cm^2 plates are resuspended in 50 mL of ice-cold lysis buffer (25 mM Tris-HCl, pH 7.5, 2 mM EDTA, 1% NP-40, 1 mM DTT, 1 mM PMSF). The cells are stirred on ice for 15 min and then centrifuged at 5000 rpms for 20 min. Purification of GST-tagged proteins: The centrifuged cell lysate is loaded onto a 2 mL glutathione-sepharose column (Pharmacia) and washed three times with 10 mL of 25 mM Tris-HCl, pH 7.5, 2 mM EDTA, 1 mM DTT, 200 mM NaCl. The GST-tagged protein is then eluted by 10 applications (1 mL each) of 25 mM Tris-HCl, pH 7.5, 10 mM reduced-glutathione, 100 mM NaCl, 1 mM DTT, 10% Glycerol and stored at −70° C. Measurement of enzyme activity: Tyrosine protein kinase assays with purified GST-Flt-3 are carried out in a final volume of 30 μL containing 200-1800 ng of enzyme protein (depending on the specific activity), 20 mM Tris-HCl, pH 7.6, 3 mM MnCl2, 3 mM MgCl2, 1 mM DTT, 10 μM Na3VO4, 3 μg/mL poly(Glu, Tyr) 4:1, 1% DMSO, 8.0 μM ATP and 0.1 μCi [γ^33 P] ATP. The activity is assayed in the presence or absence of inhibitors, by measuring the incorporation of ^33P from [γ^33P] ATP into the poly(Glu, Tyr) substrate. The assay (30 μL) is carried out in 96-well plates at ambient temperature for 20 min and terminated by the addition of 20 μL of 125 mM EDTA. Subsequently, 40 μL of the reaction mixture is transferred onto Immobilon-PVDF membrane (Millipore, Bedford, Mass., USA) previously soaked for 5 min with methanol, rinsed with water, then soaked for 5 min with 0.5% H3PO4 and mounted on vacuum manifold with disconnected vacuum source. After spotting all samples, vacuum is connected and each well rinsed with 200 μL 0.5% H3PO4. Membranes are removed and washed 4× on a shaker with 1.0% H3PO4, once with ethanol. Membranes are counted after drying at ambient temperature, mounting in Packard TopCount 96-well frame, and addition of 10 μL/well of Microscint™ (Packard). IC50 values are calculated by linear regression analysis of the percentage inhibition of each compound in duplicate, at four concentrations (usually 0.01, 0.1, 1 and 10 μM). One unit of protein kinase activity is defined as 1 nmole of ^33P transferred from [γ^33P] ATP to the substrate protein per minute per mg of protein at 37° C. […]

SMILES	IC50 [nM]
c1cc(-c2cc(Nc3ccc(OCCN4CCCC4)cc3)n[nH]2)cs1 [Example 34, [4-(2-Pyrrolidin-1-yl-ethoxy)-phenyl]-(5-thiophen-3-yl-1H-pyrazol-3-yl)-amine]	82
CCN(CC)CCOc1ccc(Nc2cc(-c3ccsc3)[nH]n2)cc1 [Example 37, [4-(2-Diethylamino-ethoxy)-phenyl]-(5-thiophen-3-yl-1H-pyrazol-3-yl)-amine]	31
c1cc(-c2cnc(Nc3ccc(OCCN4CCCCC4)cc3)s2)cs1 [Example 16, [4-(2-Piperidin-1-yl-ethoxy)-phenyl]-(5-thiophen-3-yl-thiazol-2-yl)-amine]	22
COc1ccc(-c2cnc(Nc3ccc(N4CCN(C)CC4)cc3)s2)cc1 [Example 5, [5-(4-Methoxy-phenyl)-thiazol-2-yl]-[4-(4-methyl-piperazin-1-yl)-phenyl]-amine]	24
Oc1ccc(Nc2ncc(-c3ccsc3)s2)cc1 [Example 12, 4-(5-Thiophen-3-yl-thiazol-2-yl-amino)-phenol]	34
c1ccc(-c2cnc(Nc3ccc(OCCN4CCCC4)cc3)s2)cc1 [Example 1, (5-Phenyl-thiazol-2-yl)-[4-(2-pyrrolidin-1-yl-ethoxy)-phenyl]-amine]	41
Oc1ccc(-c2cnc(Nc3ccc(OCCN4CCCC4)cc3)s2)cc1 [Example 7, 4-{2-[4-(2-Pyrrolidin-1-yl-ethoxy)-phenylamino]-thiazol-5-yl}-phenol]	35
